Measured values taken from US20100105651A1, “ANTAGONISTS OF SNS SODIUM CHANNELS” (priority 2005, published 2010).

target: T1, human NaV1.8 (hNaV1.8) ion channel (Homo sapiens, UniProt Q9Y5Y9); assay: Inhibition of Human NaV1.8 stably expressed in SH-SY-5Y cells (membrane potential dye fluorescence assay); assay type: cell-based; conditions: SH-SY-5Y cells stably expressing hNaV1.8; FLIPR membrane potential dye; 10 μM pyrethroid, 250 nM TTX; test range 100 μM-0.05 μM; read-out: hNav1.8 IC50
T1 construct: expressed in transfected cells
T1 sequence (Q9Y5Y9 whole entry): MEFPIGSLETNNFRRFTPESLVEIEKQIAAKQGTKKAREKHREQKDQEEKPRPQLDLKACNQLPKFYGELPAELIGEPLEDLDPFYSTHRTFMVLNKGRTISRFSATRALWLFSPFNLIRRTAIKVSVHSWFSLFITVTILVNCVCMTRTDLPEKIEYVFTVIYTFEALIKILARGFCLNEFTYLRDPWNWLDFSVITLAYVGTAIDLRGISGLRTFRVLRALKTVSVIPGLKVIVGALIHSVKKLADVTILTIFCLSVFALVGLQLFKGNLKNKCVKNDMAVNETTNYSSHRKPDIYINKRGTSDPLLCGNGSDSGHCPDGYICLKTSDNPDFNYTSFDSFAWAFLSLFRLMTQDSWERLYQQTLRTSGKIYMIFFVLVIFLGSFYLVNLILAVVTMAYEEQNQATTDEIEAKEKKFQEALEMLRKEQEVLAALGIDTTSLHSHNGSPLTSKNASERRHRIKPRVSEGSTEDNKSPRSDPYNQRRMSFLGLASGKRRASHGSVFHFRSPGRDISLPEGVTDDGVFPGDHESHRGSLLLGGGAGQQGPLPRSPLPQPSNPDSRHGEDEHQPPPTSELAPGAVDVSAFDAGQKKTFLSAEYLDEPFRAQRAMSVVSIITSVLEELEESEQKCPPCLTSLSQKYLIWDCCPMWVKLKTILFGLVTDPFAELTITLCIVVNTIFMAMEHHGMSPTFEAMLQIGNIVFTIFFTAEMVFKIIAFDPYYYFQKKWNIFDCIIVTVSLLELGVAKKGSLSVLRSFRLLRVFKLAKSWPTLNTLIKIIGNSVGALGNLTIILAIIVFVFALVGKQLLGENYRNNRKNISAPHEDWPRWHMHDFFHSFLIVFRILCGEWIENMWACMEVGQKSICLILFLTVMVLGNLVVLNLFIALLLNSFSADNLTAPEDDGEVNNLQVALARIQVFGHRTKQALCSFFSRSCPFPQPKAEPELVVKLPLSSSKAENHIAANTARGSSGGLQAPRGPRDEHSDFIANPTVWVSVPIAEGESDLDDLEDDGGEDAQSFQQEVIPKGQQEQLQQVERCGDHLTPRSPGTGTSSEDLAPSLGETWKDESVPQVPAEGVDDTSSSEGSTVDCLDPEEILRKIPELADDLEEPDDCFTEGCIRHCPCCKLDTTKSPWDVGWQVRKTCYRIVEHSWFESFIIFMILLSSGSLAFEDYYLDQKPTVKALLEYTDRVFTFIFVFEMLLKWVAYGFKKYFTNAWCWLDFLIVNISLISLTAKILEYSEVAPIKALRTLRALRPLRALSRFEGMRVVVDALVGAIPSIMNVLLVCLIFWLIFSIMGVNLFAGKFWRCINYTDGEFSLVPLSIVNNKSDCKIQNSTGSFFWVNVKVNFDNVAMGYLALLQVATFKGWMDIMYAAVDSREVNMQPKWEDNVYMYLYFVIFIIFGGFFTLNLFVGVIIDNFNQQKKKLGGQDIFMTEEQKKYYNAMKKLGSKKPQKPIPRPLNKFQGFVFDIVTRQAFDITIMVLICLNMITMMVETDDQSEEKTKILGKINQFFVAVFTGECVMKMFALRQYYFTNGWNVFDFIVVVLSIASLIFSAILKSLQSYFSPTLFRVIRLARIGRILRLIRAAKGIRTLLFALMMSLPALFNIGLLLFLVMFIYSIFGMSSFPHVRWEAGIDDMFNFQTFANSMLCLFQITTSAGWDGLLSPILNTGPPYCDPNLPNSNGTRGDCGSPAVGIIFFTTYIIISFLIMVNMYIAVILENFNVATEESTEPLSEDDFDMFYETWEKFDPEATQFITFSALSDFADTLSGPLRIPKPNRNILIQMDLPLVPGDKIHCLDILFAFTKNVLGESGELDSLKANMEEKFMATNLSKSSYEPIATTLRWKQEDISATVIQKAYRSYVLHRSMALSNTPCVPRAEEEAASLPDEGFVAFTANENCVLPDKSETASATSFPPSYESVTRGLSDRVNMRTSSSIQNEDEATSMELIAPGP
Description: Inhibition of Human NaV1.8 stably expressed in SH-SY-5Y cells
A SH-SY-5Y neuroblastoma cell line stably expressing the human NaV1.8 (hNaV1.8) ion channel was constructed. This cell line has been used to develop a medium to high throughput assay for determining the ability of test compounds to inhibit membrane depolarisation mediated via the hNaV1.8 channel.
SH-SY-5Y hNaV1.8 are grown in adherent monolayer culture using 50:50 Ham's F-12/EMEM tissue culture medium supplemented with 15% (v/v) foetal bovine serum; 2 mM L-glutamine, 1% NEAA and 600 μg·ml^−1 Geneticin sulphate. Cells are removed from the tissue culture flask using trypsin/EDTA and re-plated into black walled, clear bottom 96-well assay plates at 50,000 cells·well^−1 24 hours prior to assay.
On the day of assay the cell assay plates are washed to remove cell culture medium using a sodium free assay buffer (145 mM tetramethyl ammonium chloride; 2 mM calcium chloride; 0.8 mM magnesium chloride hexahydrate; 10 mM HEPES; 10 mM glucose; 5 mM potassium chloride, pH 7.4). Fluorescent membrane potential dye solution (FLIPR™ membrane potential dye, Molecular Devices Corporation), containing 10 μM of a pyrethroid to prevent channel inactivation and 250 nM tetrodotoxin (TTX) to reduce interference from TTX-sensitive sodium channels present in the cell line. Test compound, initially dissolved in dimethyl sulfoxide but further diluted in sodium free buffer, is added to achieve the final test concentration range of 100 μM-0.05 μM.
Cell plates are incubated for 30 minutes at room temperature to allow equilibration of dye and test compound. Plates are then transferred to a fluorescence plate reader for fluorescence measurement using an excitation wavelength of 530 nm whilst measuring fluorescence emission at 565 nm. […] Membrane depolarisation is registered by an increase in fluorescence emission at 565 nm.
The change in fluorescence seen in each test well upon the addition of sodium containing buffer is calculated relative to the baseline fluorescence for that well. This figure is then used for calculating the IC50 for each test compound.

| SMILES | IC50 |
| --- | --- |
| O=C(Nc1ccc(OCc2ccccc2)cc1)N1CC(NCc2c(F)cccc2F)C1 [Example 52, 3-(2,6-Difluoro-benzylamino)-azetidine-1-carboxylic acid (4-benzyloxy-phenyl)-amide] | 870 nM |
| COC(=O)C(NC1CN(C(=O)Nc2ccc(Oc3ccccc3)cc2)C1)c1ccccc1 (stereo not shown) [Example 53, [1-(4-Phenoxy-phenylcarbamoyl)-azetidin-3-ylamino]-phenyl-acetic acid methyl ester] | 2230 nM |
| COc1ccc(C(C)NC2CN(C(=O)Nc3ccc(Oc4ccccc4)cc3)C2)cc1 (stereo not shown) [Example 54, 3-[1-(4-Methoxy-phenyl)-ethylamino]-azetidine-1-carboxylic acid (4-phenoxy-phenyl)-amide] | 420 nM |
| NC(=O)C(NC1CN(C(=O)Nc2ccc(Oc3ccccc3)cc2)C1)c1ccccc1 (stereo not shown) [Example 55, 3-[(Carbamoyl-phenyl-methyl)-amino]-azetidine-1-carboxylic acid (4-phenoxy-phenyl)-amide] | 7710 nM |
| CC(NC1CN(C(=O)Nc2ccc(C(F)(F)F)cc2)C1)c1ccc(F)cc1 (stereo not shown) [Example 56, 3-[1-(4-Fluoro-phenyl)-ethylamino]-azetidine-1-carboxylic acid (4-trifluoromethyl-phenyl)-amide] | 3280 nM |
| CC(NC1CN(C(=O)Nc2ccc(Oc3ccccc3)cc2)C1)c1ccc(F)cc1Cl (stereo not shown) [Example 57, 3-[1-(2-Chloro-4-fluoro-phenyl)-ethylamino]-azetidine-1-carboxylic acid (4-phenoxy-phenyl)-amide] | 1220 nM |
| CC(NC1CN(C(=O)Nc2cccc(Oc3ccccc3)c2)C1)c1ccc(F)cc1Cl (stereo not shown) [Example 58, 3-[1-(2-Chloro-4-fluoro-phenyl)-ethylamino]-azetidine-1-carboxylic acid (3-phenoxy-phenyl)-amide] | 1120 nM |
| CC(c1ccc(F)cc1Cl)N(C)C1CN(C(=O)Nc2ccc(C(F)(F)F)cc2)C1 (stereo not shown) [Example 59, 3-{[1-(2-Chloro-4-fluoro-phenyl)-ethyl]-methyl-amino}-azetidine-1-carboxylic acid (4-trifluoromethyl-phenyl)-amide] | 1870 nM |
| CC(c1ccc(F)cc1Cl)N(C)C1CN(C(=O)Nc2ccc(Oc3ccccc3)cc2)C1 (stereo not shown) [Example 60, 3-{[1-(2-Chloro-4-fluoro-phenyl)-ethyl]-methyl-amino}-azetidine-1-carboxylic acid (4-phenoxy-phenyl)-amide] | 570 nM |
| Cc1ccccc1C(C)NC1CN(C(=O)Nc2ccc(Oc3ccccc3)cc2)C1 (stereo not shown) [Example 61, 3-(1-o-Tolyl-ethylamino)-azetidine-1-carboxylic acid (4-phenoxy-phenyl)-amide] | 750 nM |
| Cc1ccccc1C(C)N(C)C1CN(C(=O)Nc2ccc(Oc3ccccc3)cc2)C1 (stereo not shown) [Example 62, 3-[Methyl-(1-o-tolyl-ethyl)-amino]-azetidine-1-carboxylic acid (4-phenoxy-phenyl)-amide] | 720 nM |
| CC(NC1CN(C(=O)Nc2ccc(Oc3ccccc3)cc2)C1)c1ccccc1Cl (stereo not shown) [Example 63, 3-[1-(2-Chloro-phenyl)-ethylamino]-azetidine-1-carboxylic acid (4-phenoxy-phenyl)-amide] | 630 nM |
| CCCCOc1ccc(NC(=O)N2CC(NC(C)c3ccccc3C)C2)cc1 (stereo not shown) [Example 65, 3-(1-o-Tolyl-ethylamino)-azetidine-1-carboxylic acid (4-butoxy-phenyl)-amide] | 1420 nM |
| CCCCOc1ccc(NC(=O)N2CC(NC(C)c3ccc(F)cc3)C2)cc1 (stereo not shown) [Example 66, 3-[1-(4-Fluoro-phenyl)-ethylamino]-azetidine-1-carboxylic acid (4-butoxy-phenyl)-amide] | 2270 nM |
| CC(c1ccccc1Cl)N(C)C1CN(C(=O)Nc2ccc(Oc3ccccc3)cc2)C1 (stereo not shown) [Example 67, 3-{[1-(2-Chloro-phenyl)-ethyl]-methyl-amino}-azetidine-1-carboxylic acid (4-phenoxy-phenyl)-amide] | 550 nM |
| CCCCOc1cccc(NC(=O)N2CC(NC(C)c3ccccc3C)C2)c1 (stereo not shown) [Example 68, 3-(1-o-Tolyl-ethylamino)-azetidine-1-carboxylic acid (3-butoxy-phenyl)-amide] | 830 nM |
| CCCCOc1cccc(NC(=O)N2CC(NC(C)c3ccc(F)cc3)C2)c1 (stereo not shown) [Example 69, 3-[1-(4-Fluoro-phenyl)-ethylamino]-azetidine-1-carboxylic acid (3-butoxy-phenyl)-amide] | 1320 nM |
| CC(NC1CN(C(=O)Nc2ccc(Oc3ccccc3)cc2)C1)c1ccc(OC(F)(F)F)cc1 (stereo not shown) [Example 70, 3-[1-(4-Trifluoromethoxy-phenyl)-ethylamino]-azetidine-1-carboxylic acid (4-phenoxy-phenyl)-amide] | 22100 nM |
| CCCCOc1ccc(NC(=O)N2CC(NC(C)c3ccccc3Cl)C2)cc1 (stereo not shown) [Example 71, 3-[1-(2-Chloro-phenyl)-ethylamino]-azetidine-1-carboxylic acid (4-butoxy-phenyl)-amide] | 770 nM |
| CC(NC1CN(C(=O)Nc2ccc(OC(F)(F)F)cc2)C1)c1ccc(F)cc1 (stereo not shown) [Example 72, 3-[1-(4-Fluoro-phenyl)-ethylamino]-azetidine-1-carboxylic acid (4-trifluoromethoxy-phenyl)-amide] | 3210 nM |
| CC(NC1CN(C(=O)Nc2cccc(C(F)(F)F)c2)C1)c1ccc(F)cc1 (stereo not shown) [Example 73, 3-[1-(4-Fluoro-phenyl)-ethylamino]-azetidine-1-carboxylic acid (3-trifluoromethyl-phenyl)-amide] | 2560 nM |
| CC(NC1CN(C(=O)Nc2cccc(C(F)(F)F)c2)C1)c1ccccc1Cl (stereo not shown) [Example 74, 3-[1-(2-Chloro-phenyl)-ethylamino]-azetidine-1-carboxylic acid (3-trifluoromethyl-phenyl)-amide] | 2860 nM |
| Cc1ccccc1C(C)NC1CN(C(=O)Nc2cccc(C(F)(F)F)c2)C1 (stereo not shown) [Example 75, 3-(1-o-Tolyl-ethylamino)-azetidine-1-carboxylic acid (3-trifluoromethyl-phenyl)-amide] | 2260 nM |
| CCCCOc1ccc(NC(=O)N2CC(N3CCc4cccc(OC)c4C3)C2)cc1 [Example 76, 3-(8-Methoxy-3,4-dihydro-1H-isoquinolin-2-yl)-azetidine-1-carboxylic acid (4-butoxy-phenyl)-amide] | 1410 nM |
| CC(NC1CN(C(=O)Nc2ccc(Oc3ccccc3)cc2)C1)c1ccc(Oc2ccccc2)cc1 (stereo not shown) [Example 77, 3-[1-(4-Phenoxy-phenyl)-ethylamino]-azetidine-1-carboxylic acid (4-phenoxy-phenyl)-amide] | 1090 nM |
| CC(NC1CN(C(=O)Nc2ccc(C(F)(F)F)cc2)C1)c1ccc(Oc2ccccc2)cc1 (stereo not shown) [Example 78, 3-[1-(4-Phenoxy-phenyl)-ethylamino]-azetidine-1-carboxylic acid (4-trifluoromethyl-phenyl)-amide] | 1300 nM |
| CC(NC1CN(C(=O)Nc2ccc(Oc3ccccc3)cc2)C1)c1ccc(F)cc1 (stereo not shown) [Example 79, 3-[1-(4-Fluoro-phenyl)-ethylamino]-azetidine-1-carboxylic acid (4-phenoxy-phenyl)-amide] | 760 nM |
| CC(c1ccc(OC(F)(F)F)cc1)N(C)C1CN(C(=O)Nc2ccc(Oc3ccccc3)cc2)C1 (stereo not shown) [Example 80, 3-{Methyl-[1-(4-trifluoromethoxy-phenyl)-ethyl]-amino}-azetidine-1-carboxylic acid (4-phenoxy-phenyl)-amide] | 1220 nM |
